Laboratory results as given in publication PMC11951083, “Highly Specific Miniaturized Fluorescent Monoacylglycerol Lipase Probes Enable Translational Research” (Journal of the American Chemical Society, 2025).
Values after ≈ are worked out from the molar mass of the structure shown. Like-named read-outs stand apart in the source and are kept apart here.

Experiments:
[1] = test system: rat MAGL; conditions: cited from earlier work
[2] = target: T1, MAGL (Homo sapiens, UniProt Q99685); test: Native MS (RapidFire) 2-AG substrate assay, purified human MAGL; assay type: biochemical; conditions: purified human MAGL, native MS substrate assay; IC50 of covalent inhibitors time-dependent; read-out: IC50 hMAGL
T1 sequence (Q99685 1-303): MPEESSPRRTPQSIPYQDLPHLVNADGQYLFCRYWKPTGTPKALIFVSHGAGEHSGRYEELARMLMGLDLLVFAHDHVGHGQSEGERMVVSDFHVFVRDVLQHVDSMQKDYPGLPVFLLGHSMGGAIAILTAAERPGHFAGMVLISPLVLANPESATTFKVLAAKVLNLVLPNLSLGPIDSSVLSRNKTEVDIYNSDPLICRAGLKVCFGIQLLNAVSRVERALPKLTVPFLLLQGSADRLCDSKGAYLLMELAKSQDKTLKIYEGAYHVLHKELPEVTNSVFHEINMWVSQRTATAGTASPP
Procedure: (§1) In vitro MAGL Inhibition Assay
(§2) Compounds were profiled for MAGL inhibitory activity by determining the enzymatic activity by following the hydrolysis of the natural substrate 2-arachidonoylglycerol (2-AG), resulting in arachidonic acid, which can be followed by mass spectrometry. The 2-AG assay was carried out in 384 well assay plates (PP, Greiner Cat# 784201) in a total volume of 20 µL. Compound dilutions were made in 100% DMSO (VWR Chemicals 23500.297) in a polypropylene plate in 3-fold dilution steps to give a final concentration range in the assay from 12.5 µM to 0.8 pM. 0.25µL compound dilutions (100% DMSO) were added to 9 µL MAGL in assay buffer (50 mM TRIS (GIBCO, 15567-027), 1 mM EDTA (Fluka, 03690-100 mL), 0.01% (v/v) Tween. After shaking, the plate was incubated for 15 min at RT. To start the reaction, 10 µL 2-arachidonoylglycerol in assay buffer was added. The final concentrations in the assay were 50 pM MAGL and 8 µM 2-arachidonoylglyerol. After shaking and 30 min incubation at RT, the reaction was quenched by the addition of 40µL of ACN containing 4µM of d8-arachidonic acid. The amount of arachidonic acid was traced by an online SPE system (Agilent Rapidfire) coupled to a triple quadrupole mass spectrometer (Agilent 6460). A C18 SPE cartridge (G9205A) was used in an ACN/water liquid setup. The mass spectrometer was operated in negative electrospray mode following the mass transitions 303.1 → 259.1 for arachidonic acid and 311.1 → 267.0 for d8-arachidonic acid. The activity of the compounds was calculated based on the ratio of intensities [arachidonic acid / d8-arachidonic acid]. The lowest IC50 value that can be determined with high accuracy is approximately 0.025 nM.

[3] = High throughput kinetic solubility measurement; assay type: physicochemical; conditions: phosphate buffer, pH 6.5, aqueous buffer, kinetic from dmso stock
[4] = target: T2, mMAGL (Mus musculus, UniProt O35678); test: Native MS (RapidFire) 2-AG substrate assay, purified mouse MAGL; assay type: biochemical; conditions: purified mouse MAGL, native MS substrate assay; read-out: IC50 mMAGL
T2 sequence (O35678 1-303): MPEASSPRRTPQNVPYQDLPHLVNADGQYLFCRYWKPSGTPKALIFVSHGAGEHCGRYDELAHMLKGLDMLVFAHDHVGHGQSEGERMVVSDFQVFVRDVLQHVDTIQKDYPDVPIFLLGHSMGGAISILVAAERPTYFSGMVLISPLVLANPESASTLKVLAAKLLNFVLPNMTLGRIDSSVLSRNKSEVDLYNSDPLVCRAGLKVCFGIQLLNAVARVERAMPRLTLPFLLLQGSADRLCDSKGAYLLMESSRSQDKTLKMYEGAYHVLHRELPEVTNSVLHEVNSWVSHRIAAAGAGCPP
Procedure: as §1, §2

[5] = target: T3, rMAGL (Rattus norvegicus, UniProt Q8R431); test: Native MS (RapidFire) 2-AG substrate assay, purified rat MAGL; assay type: biochemical; conditions: for loss of potency against rat or cynomolgus monkey orthologs: rat or cynomolgus monkey MAGL
T3 sequence (Q8R431 1-303): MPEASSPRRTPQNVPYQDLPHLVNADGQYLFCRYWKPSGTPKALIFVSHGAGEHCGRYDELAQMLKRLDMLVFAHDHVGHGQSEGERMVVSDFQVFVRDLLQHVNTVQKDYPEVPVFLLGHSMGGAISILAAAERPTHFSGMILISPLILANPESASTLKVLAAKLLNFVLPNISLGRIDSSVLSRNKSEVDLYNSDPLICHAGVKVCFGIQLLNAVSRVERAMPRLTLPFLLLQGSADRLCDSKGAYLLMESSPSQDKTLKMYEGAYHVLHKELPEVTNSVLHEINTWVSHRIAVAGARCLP
Procedure: as §1, §2

[6] = target: T4, cMAGL (Macaca fascicularis, UniProt A0A2K5V664); test: Native MS (RapidFire) 2-AG substrate assay, purified cynomolgus monkey MAGL; assay type: biochemical; conditions: purified cynomolgus monkey MAGL, native MS substrate assay; read-out: IC50 cMAGL
T4 sequence (A0A2K5V664 11-297): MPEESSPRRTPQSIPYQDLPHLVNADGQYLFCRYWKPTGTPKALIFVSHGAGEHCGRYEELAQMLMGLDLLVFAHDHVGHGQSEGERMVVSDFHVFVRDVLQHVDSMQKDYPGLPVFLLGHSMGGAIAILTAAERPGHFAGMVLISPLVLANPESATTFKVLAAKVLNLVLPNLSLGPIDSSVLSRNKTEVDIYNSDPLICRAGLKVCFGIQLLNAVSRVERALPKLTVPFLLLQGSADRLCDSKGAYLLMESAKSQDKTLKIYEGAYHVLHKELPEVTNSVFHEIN
Procedure: as §1, §2

[7] = test system: serine hydrolases in the mouse brain proteome (MBP); test: Multiplex ABPP in mouse brain proteome; assay type: biochemical
Procedure: K = [L][P] = 0.5 [L]T (FP50 − 0.5 [L]T) = FP − 0.5 [L] […]
Mouse brain sample preparation
Mouse tissues were isolated according to guidelines approved by the ethical committee of Leiden University. Male mouse brain (27 weeks old) was homogenized with glass beads (2x 1 min, bullet blender, speed 8) using cold lysis buffer (20 mM Hepes pH 7.2, 1 mM MgCl 2, 2 U/mL Benzonase). The membrane and cytosol were separated by centrifugation. The membrane fraction was resuspended in Hepes/DTT buffer. Protein concentration was determined with Bradford Assay, and samples were diluted to a final concentration of 2.0 mg/mL. Samples were snap -frozen in liquid nitrogen and stored at -80 °C until further use.
Lysate (19 µL, 2 µg/µL) was thawed on ice. For comparative ABPP (irreversible probes), 1 µL of probe (20x stock in DMSO) or pure DMSO was added to the sample, vortexed briefly, and in cubated for 30 minutes at RT. For competitive ABPP (reversible probes), 0.5 µL of the reversible probe (40x stock in DMSO) or pure DMSO (as vehicle) was added to the sample, vortexed briefly, and incubated for 30 […]
minutes at RT. Subsequently, 0.5 µL MB064 (40x stock in DMSO) was added to the proteome sample, vortexed briefly, and incubated for 10 minutes at RT, after which 0.5 µL FP-Bodipy-FL (40x stock in DMSO) was added, vortexed briefly and incubated for 10 minutes at RT. The final volume was 20 - 20.5 µL (5 - 7.5% DMSO). The reaction was quenched by the addition of 7.5 µL of 4*Laemmli-buffer (final concentrations: 60 mM Tris (pH 6.8), 2% (w/v) SDS, 10% (v/v) glycerol, 1.25% (v/v) β-mercaptoethanol, 0.01% (v/v) bromophenol blue). 10 µL (14 µg protein) of the quenched reaction mixture was resolved on 10% acrylamide SDS-PAGE (180 V, 75 min). Fluorescence was measured using a Biorad ChemiDoc MP system (fluorescence channels Cy2, Cy3, Cy5). Gels were then stained using coomassie staining and imaged for protein loading control. Labeling of the respective proteins via MB064 and FP-BODIPY was visualized in two separate channels. […]
Activity based protein profiling (ABPP)
PBMCs were thawed, washed with 1 x PBS and equal amounts of cells were exposed to DMSO (D2650; Sigma-Aldrich) or MAGL inhibitor PF (PF-06795071) in DMSO for 30 min at room temperature with concentrations ranging from 1 nM to 1000 nM. Cells were washed with 1 x PBS and lysed in ice -cold lysis buffer (ab156035; Abcam), lysates were centrifuged at 14,000 x g for 15 minutes at 4°C and supernatants were collected. For ABPP experiments, cell lysates containing equal amounts of protein were incubated with the appropriate concentration of activity -based probe for 30 min at room temperature. The reaction was quenched for 30 min by adding SDS -PAGE loading buffer (NP0007, Thermo). Samples were then separated by SDS-PAGE and bands were detected ChemiDoc Imager (Bio-Rad Laboratories). Following detection, gels were stained with SimplyBlue™ SafeStain (LC6060, Thermo) for 1 hour with gentle agitation and excess stain was removed by destaining in ddH2O for 1 h with gentle agitation. Gels were imaged and protein bands were quantified using Image Lab software (Bio-Rad Laboratories).

[8] = target: T1, MAGL; design: method as in earlier work; conditions: Table S2, literature compounds; ref (1), (6)-(12) as indicated per compound; cited from earlier work
[9] = target: T5, NanoLuc luciferase MAGL fusion protein (Homo sapiens, UniProt Q99685); test: Cellular MAGL NanoBRET target engagement assay in live HEK293 cells; assay type: cell-based; conditions: live HEK293 cells; read-out: IC50 nanoBRET
T5 sequence (Q99685 1-303): T1 sequence (Q99685 1-303)
Procedure: This assay was performed as first described before.20
Compounds were profiled by a novel cellular MAGL NanoBRET™ Target Engagement assay, which measures the apparent affinity of test compounds by competitive displacement of a Roche -developed Tracer (WO2021058443, Example 2 121, or probe 4a, respectively), reversibly bound to a NanoLuc ® luciferase MAGL fusion protein in cells.
A HEK293A stable cell line expressing NanoLuc_MAGL was established at Roche and assigned as HEK293A_NanoLuc_MAGL clone #43. A fixed concentration of tracer is added to cells expressing the NanoLuc®_MAGL fusion protein to generate a BRET reporter complex. The introduction of competing compounds results in a dose -dependent decrease in NanoBRET™ energy transfer, which allows quantification of the intracellular affinity of the target protein for the test compound.
HEK293A_NanoLuc_MAGL clone #43 cells were cultured in DMEM (Gibco 31966) with 10% FBS and 800 ug/ml G418. The NanoBRET assay was performed by seeding 5000 cells/well in Costar low - volume white 384-well plate in assay buffer (1% FBS in HBSS), followed by adding the tracer (50 nM Example 21 or 100 nM 4a final concentration) and serial dilutions of test compounds. After 2 hours of incubation, Nanoluciferase substrates and extracellular inhibitors were added following the manufacturer's protocol (Promega, #N2520), and the NanoBRET signaling were quantified with the Paradigm (Molecular Devices).

[10] = purified rat MAGL, native MS substrate assay, read-out: IC50 rMAGL

| SMILES | IC50 [2] | solubility kinetic [3] | IC50 [4] | IC50 [5, 10] | loss of potency against rat or cynomolgus monkey orthologs [5] | IC50 [6] | IC50 [9] | IC50 ([5]; SI Table 1, read-out: IC50 against purified MAGL ± SEM, Rat) | potency on rat MAGL [1] | selectivity in competitive ABPP (reversible probes) ([7]; mouse brain proteome, membrane and cytosolic fraction, 1 μM) | IC50 [8] | labeling selectivity in ABPP (covalent probes) ([7]; mouse brain homogenates, broad range of concentrations) |
| --- | --- | --- | --- | --- | --- | --- | --- | --- | --- | --- | --- | --- |
| O=C(Oc1ccc([N+](=O)[O-])cc1)N1CCC(C(O)(c2ccc3c(c2)OCO3)c2ccc3c(c2)OCO3)CC1 [JZL-184] | – | – | – | – | – | – | – | – | severely reduced potency | – | – | – |
| CN1/C(=C/C=C/C=C/C2=[N+](CCCCCC(=O)NCc3cn(CCOc4ccc(C(c5ccc(Cl)cc5)N5CCN(C(=O)OC(C(F)(F)F)C(F)(F)F)CC5)cc4)nn3)c3ccccc3C2(C)C)C(C)(C)c2ccccc21 (stereo not shown) [LEI-463] | – | – | – | – | – | – | – | – | – | – | ~10 nM | – |
| O=C(O[C@H](CO)C(F)(F)F)N1CC2(CC(CC3=C4C=CC(c5ccc[nH]5)=[N+]4[B-](F)(F)n4cccc43)C2)C1 [Compound 1a] | 0.47 nM | < 1 µg/mL | 0.31 nM | 0.44 nM | – | 0.4 nM | – | – | – | – | – | only selective irreversible labeling of the two MAGL isoforms |

More lines, main results first:

| IC50 [2] | solubility kinetic [3] | IC50 [4] | IC50 [5, 10] | loss of potency against rat or cynomolgus monkey orthologs [5] | IC50 [6] | IC50 [9] | IC50 ([5]; SI Table 1, read-out: IC50 against purified MAGL ± SEM, Rat) | SMILES | potency on rat MAGL [1] | selectivity in competitive ABPP (reversible probes) ([7]; mouse brain proteome, membrane and cytosolic fraction, 1 μM) | IC50 [8] | labeling selectivity in ABPP (covalent probes) ([7]; mouse brain homogenates, broad range of concentrations) |
| --- | --- | --- | --- | --- | --- | --- | --- | --- | --- | --- | --- | --- |
| 0.73 nM | < 0.1 µg/mL | 0.9 nM | 2.23 nM | less than 4 fold | 0.77 nM | – | – | O=C(N1CC2(CC(CC3=C4C=CC(c5ccc[nH]5)=[N+]4[B-](F)(F)n4cccc43)C2)C1)N1CC2(CC(n3cnc(C4CC4)n3)C2)C1 [Compound 5a] | – | no other potential off-target detectable | – | – |
| 0.83 nM | 139 µg/mL (≈ 288 µM) | 0.96 nM | – | less than 4 fold | 3.86 nM | 557 nM | 3.54 ± 0.37 nM | O=C1NC2(CO1)CN(C(=O)N1CC3(CCC(CC4=C5C=CC=[N+]5[B-](F)(F)n5cccc54)CC3)C1)C2 [Compound 3] | – | – | – | – |
